This note sets out measurements from patent US4810705A, “Triazolo [3,4-b]pyridazines, process for their preparation and pharmaceutical compositions containing them” (priority 1984, dated 1989).

Series [1] has as its target benzodiazepine receptor. Kind of series: Displacement of tritiated flunitrazepam from the benzodiazepine receptor (synaptic preparations of rat brain). The class given is binding. The note with it: tritiated flunitrazepam (60 Ci/mM), 1.1 nM final, read-out: median effective concentration (IC50). As to the method: ABILITY OF THE DERIVATIVES TO DISPLACE TRITIATED FLUNITRAZEPAM FROM THE BENZODIAZEPINE RECEPTOR
The studies were carried out on synaptic preparations of rat brain in accordance with the method described by Squives and Braestrup (Nature, 1977, 266, pages 732 to 734) and Mohler and Okada (Science, 1977, 198, pages 849 to 851).
The tritiated flunitrazepam (60 Ci/mM) was used at a final concentration of 1.1 nM. The results obtained with various products of the invention are shown in Table III and are expressed as median effective concentration (IC50) in μM.

A short description of series [2]: Acute oral toxicity in female Charles River CD1 mice. The note with it: mouse, in vivo, read-out: % toxicity (percentage of dead animals). As to the method:
Finally, the products of the invention were studied for their toxicity.
The studies were carried out on groups of 5 female Charles River mice of the CD1 strain, weighing between 20 and 24 g. The products were administered orally, diluted in 5% gum arabic. The acute toxicity was recorded during the 72 hours following administration of the product.
The results below (percentage of dead animals) were obtained as a function of the dose administered.

Series [3] concerns food intake. Kind of series: Food intake of fasted rats. The class given is in vivo. The note with it: 40 mg/kg orally, first hour. The protocol:
Furthermore, the products according to the invention were studied for their ability to reduce the food intake of fasted rats.
The studies were carried out on isolated female rats (200 to 240 g) trained to consume their food during a period of 4 hours per day. On the day of the test, 60 minutes before the food is provided, the animals receive either the product to be studied or the vehicle of administration. The quantity of food ingested during the first hour is determined.
The values shown in the table are the mean values for groups of 6 rats.

Series [4] deals with anxiolytic effect of diazepam. Kind of series: Antagonism of anxiolytic effect of diazepam, approach-avoidance conflict test in rats. The class given is in vivo. The note with it: 60 min before diazepam 4 mg/kg i.p. As to the method:
The studies were carried out on rats in the approach-avoidance conflict test (L. Cook and A. B. Davidson, Effects of behaviorally active drugs in a conflict-punishment procedure in rats. In: The Benzodiazepines, S. Garattini, E. Mussini and L. O. Randall, editors, Raven Press, New York, 1973, 327-345).
A representative product of the invention, SR 95 195, was administered intraperitoneally 60 minutes before an anxiolytic dose of diazepam (4 mg/kg i.p.). The test was performed 30 minutes after administration of the diazepam.

In series [5] the test system is myorelaxation induced by diazepam. Kind of series: Antagonism of diazepam myorelaxation, traction test in mice. The class given is in vivo. The note with it: 15 min before diazepam 3 mg/kg i.p., test 60 min after product; for ED50: Mus musculus, 1 h, read-out: Antagonism of the myorelaxation, 50% effective dose (ED50). The protocol: (a) Myorelaxant properties.
The studies were carried out by means of the traction test (J. R. Boissier et al., Archives Internationales de Pharmacodynamie, 1961, 135, pages 29-49). This test determines the ability of mice, placed with the front paws on a horizontally stretched wire, to grip with the back paws. The animals which have not brought the back paws onto the wire in less than 5 seconds are considered to be in a state of myorelaxation.
The products are administered 15 minutes before the intraperitoneal injection of a dose of 3 mg/kg of diazepam and the test is performed 60 minutes after administration of the product to be studied. The study was carried out on groups of 10 mice per dose.

Read-outs that look alike come from different tables or passages of the source.

As for `c1ccc(-c2cnn3cnnc3c2)cc1` [SR 95 194, 7-Phenyl-1,2,4-triazolo[4,3-b]pyridazine], the IC50 in series [1] came to 0.049 mM. The mortality at 72 h in series [2] (250 mg/kg orally) amounted to 0%; in series [2] (500 mg/kg orally) it was 0%; in series [2] (1000 mg/kg orally) it was 100%.
Take `Cc1nnc2cc(-c3ccccc3)cnn12` [SR 95 195]: the “Food intake” value in series [3] (60 min before food, fasted female rats, mean, groups of 6) came to 8.6 ± 1.5 g. For the same molecule, the “Food intake, % variation relative to the control animals” value in series [3] (p < 0.01, Student's test) is -51%. In addition, the IC50 in series [1] is 0.009 mM. Besides, the “% antagonism (anxiolytic effect of diazepam)” value was found to be 26% in series [4] (1.25 mg/kg i.p.), 74% in series [4] (6.25 mg/kg i.p.) and 100% in series [4] (25 mg/kg i.p.). In addition, the mortality at 72 h in series [2] (250 mg/kg orally) was 0%; in series [2] (500 mg/kg orally), 0%; in series [2] (1000 mg/kg orally) it was 80%. In series [5], the ED50 (usually the dose at which the effect has come halfway, by size or by number of responders) worked out at 26 mg/kg.
For the molecule `Cc1nnc2cc(Cc3ccccc3)cnn12` [SR 95 252], the IC50 in series [1] came to 0.027 mM. Besides, the mortality at 72 h in series [2] (250 mg/kg orally) was 0%; in series [2] (500 mg/kg orally), 0%; in series [2] (1000 mg/kg orally), 100%.
As to `COc1ccc(-c2cnn3c(C)nnc3c2)cc1` [SR 95 287, 7-(4-Methoxyphenyl)-3-methyl-1,2,4-triazolo[4,3-b]pyridazine], the mortality at 72 h in series [2] (250 mg/kg orally), in series [2] (500 mg/kg orally) and in series [2] (1000 mg/kg orally) was 0% each time.
Regarding `Cc1nnc2cc(-c3ccc(Cl)cc3)cnn12` [SR 95 369], the mortality at 72 h turned out to be 0% in series [2] (250 mg/kg orally), 100% in series [2] (500 mg/kg orally) and 100% in series [2] (1000 mg/kg orally).
For `Cc1ccc(-c2cnn3c(C)nnc3c2)cc1` [SR 95 370], the mortality at 72 h was found to be 40% in series [2] (250 mg/kg orally), 100% in series [2] (500 mg/kg orally) and 100% in series [2] (1000 mg/kg orally).
Consider `Cc1nnc2cc(-c3cccc(Cl)c3)cnn12` [SR 95 398], for which the IC50 in series [1] worked out at 0.0026 mM. The mortality at 72 h in series [2] (250 mg/kg orally) and in series [2] (500 mg/kg orally) was 0% throughout. Further, the ED50 in series [5] turned out to be 20 mg/kg.
`Cc1nnc2cc(CCc3ccccc3)cnn12` [SR 95 410]: the mortality at 72 h in series [2] (250 mg/kg orally), in series [2] (500 mg/kg orally) and in series [2] (1000 mg/kg orally) was 0% in each case.
Take `Cc1nnc2cc(-c3ccccc3Cl)cnn12` [SR 95 437]: the mortality at 72 h in series [2] (250 mg/kg orally) and in series [2] (500 mg/kg orally) was 0% in each case.
On to `c1ccc(Cc2nnc3cc(-c4ccccc4)cnn23)cc1` [SR 95 491, 7-Phenyl-3-benzyl-1,2,4-triazolo[4,3-b]pyridazine], for which the IC50 in series [1] was found to be 0.0045 mM.
On to `Clc1ccc(-c2nnc3cc(-c4ccccc4)cnn23)cc1` [SR 95 492], for which the mortality at 72 h in series [2] (250 mg/kg orally) and in series [2] (500 mg/kg orally) was 0% throughout.
On to `c1ccc(-c2cnn3c(-c4ccccc4)nnc3c2)cc1` [SR 95 494], for which the IC50 in series [1] is 0.05 mM. The mortality at 72 h in series [2] (250 mg/kg orally) and in series [2] (500 mg/kg orally) was 0% in each case.
For the molecule `Cc1nnc2cc(-c3cccc(C(F)(F)F)c3)cnn12` [SR 95 533], the IC50 in series [1] came out at 0.0029 mM. For the same molecule, the “Antagonism of the myorelaxation, effect (dose)” value in series [5] (at 100 mg/kg) is 100%.
